Laboratory results from patent US20260083865A1, “PROSTATE SPECIFIC MEMBRANE ANTIGEN (PSMA) LIGANDS AND USE THEREOF” (priority 2022, published 2026).
Like-named read-outs stand apart in the source and are kept apart here. Numbered stars: 1 amine (or outer) side, 2 acyl side, 3 side chain; on linkers, the order of the positions; unused ones are H or OH. Bridge positions count the residues as written; N and C are the ends. Square brackets hold non-standard residues; d marks the D form. Peptide text beside a SMILES is read from it. * marks the point of attachment. X3 = O=C(O)CN1CCN(CC(=O)O)CCN(CC(=O)NCCCOCCOCCOCCCN*)CCN(CC(=O)O)CC1; DOTA = O=C(O)CN1CCN(CC(=O)O)CCN(CC(=O)*)CCN(CC(=O)O)CC1; Phe(4-Cl) = N[C@@H](Cc1ccc(Cl)cc1)C(=O)O; Arg(Me) = CNC(=N)NCCC[C@H](N)C(=O)O; 2Pal = N[C@@H](Cc1ccccn1)C(=O)O; X1 = O=C(CC1CCN([*:1])CC1)[*:2]; Cit = NC(=O)NCCC[C@H](N)C(=O)O; Lys(Me) = CNCCCC[C@H](N)C(=O)O; Suc = O=C(CCC(=O)[*:2])[*:1]; Tle = CC(C)(C)[C@H](N)C(=O)O; Nle = CCCC[C@H](N)C(=O)O; Orn = NCCC[C@H](N)C(=O)O; Aib = CC(C)(N)C(=O)O; βAla = NCCC(=O)O

Assays:
[1] = target: T1, PSMA-expressing C4-2 cells (Homo sapiens, UniProt Q04609); assay: FACS binding assay (competition with 50 nM PSM-0183); details: for IC50: read-out: pIC50 [C4-2] CAT (converted)
T1 construct: PSMA-expressing C4-2 cells (ATCC, Cat. No. CRL-3314) were cultured in RPMI-1640; host or cells: C4-2 cells
Outline: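 Competition format: fluorescent tracer PSM-0183 (50 nM) displaced from PSMA on C4-2 cells by a test compound titration over 1 h at 4 °C. Bound tracer was quantified as flow-cytometric AF488 median fluorescence after washing. Four-parameter logistic fits of MFI data gave IC50 and pIC50.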

[2] = target: T2, Fc-fusion protein of human PSMA (hPSMA-Fc) (Homo sapiens, UniProt Q04609); assay: Surface plasmon resonance assay (Biacore T200, single cycle kinetic); assay type: binding; details: for Kd: read-out: pKD CAT (converted)
T2 construct: purchased Acro Biosystems PSA-H5264
Outline: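 KD, expressed as pKD, came from 1:1 Langmuir fits of reference- and buffer-blank-subtracted SPR data. The runs were single-cycle kinetics at 25° C in HBST/0.1% DMSO over human PSMA-Fc, captured to ~1000 RU on a peptide-coated CM5 surface and regenerated with 10 mM glycine pH 1.5.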

[3] = FACS binding, PSMA-expressing C4-2 cells, pIC50 category
[4] = PSMA SPR assay, hPSMA-Fc, 25° C., pKD category
[5] = pIC50 category of FACS binding, C4-2 cells
[6] = pKD category for PSMA SPR activity assay, hPSMA-Fc, 25° C.
[7] = FACS binding, C4-2 cells, category
[8] = FACS binding, C4-2 cells, competition with 50 nM PSM-0183, category
[9] = SPR, hPSMA-Fc, single cycle kinetic, 25° C., category

T1 sequence (Q04609 whole entry): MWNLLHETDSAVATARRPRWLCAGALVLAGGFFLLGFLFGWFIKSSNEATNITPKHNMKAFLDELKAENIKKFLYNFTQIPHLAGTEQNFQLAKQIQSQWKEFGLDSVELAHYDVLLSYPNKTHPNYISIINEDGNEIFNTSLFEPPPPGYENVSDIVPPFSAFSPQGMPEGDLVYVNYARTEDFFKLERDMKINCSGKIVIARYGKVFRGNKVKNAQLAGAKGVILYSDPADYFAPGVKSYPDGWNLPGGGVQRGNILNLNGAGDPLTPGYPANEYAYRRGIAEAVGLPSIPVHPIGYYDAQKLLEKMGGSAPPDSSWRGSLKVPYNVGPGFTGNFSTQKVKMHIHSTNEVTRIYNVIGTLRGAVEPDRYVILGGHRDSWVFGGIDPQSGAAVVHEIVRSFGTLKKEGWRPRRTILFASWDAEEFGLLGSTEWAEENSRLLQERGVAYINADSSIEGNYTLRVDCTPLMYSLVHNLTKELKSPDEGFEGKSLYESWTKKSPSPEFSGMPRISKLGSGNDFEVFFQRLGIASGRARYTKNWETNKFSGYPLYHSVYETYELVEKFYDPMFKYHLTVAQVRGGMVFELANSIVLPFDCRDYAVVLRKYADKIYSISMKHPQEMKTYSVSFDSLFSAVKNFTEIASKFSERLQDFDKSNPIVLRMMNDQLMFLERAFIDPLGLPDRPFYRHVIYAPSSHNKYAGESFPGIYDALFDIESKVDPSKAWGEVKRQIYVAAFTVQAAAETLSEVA
T2 sequence (Q04609 44-750 limits assumed): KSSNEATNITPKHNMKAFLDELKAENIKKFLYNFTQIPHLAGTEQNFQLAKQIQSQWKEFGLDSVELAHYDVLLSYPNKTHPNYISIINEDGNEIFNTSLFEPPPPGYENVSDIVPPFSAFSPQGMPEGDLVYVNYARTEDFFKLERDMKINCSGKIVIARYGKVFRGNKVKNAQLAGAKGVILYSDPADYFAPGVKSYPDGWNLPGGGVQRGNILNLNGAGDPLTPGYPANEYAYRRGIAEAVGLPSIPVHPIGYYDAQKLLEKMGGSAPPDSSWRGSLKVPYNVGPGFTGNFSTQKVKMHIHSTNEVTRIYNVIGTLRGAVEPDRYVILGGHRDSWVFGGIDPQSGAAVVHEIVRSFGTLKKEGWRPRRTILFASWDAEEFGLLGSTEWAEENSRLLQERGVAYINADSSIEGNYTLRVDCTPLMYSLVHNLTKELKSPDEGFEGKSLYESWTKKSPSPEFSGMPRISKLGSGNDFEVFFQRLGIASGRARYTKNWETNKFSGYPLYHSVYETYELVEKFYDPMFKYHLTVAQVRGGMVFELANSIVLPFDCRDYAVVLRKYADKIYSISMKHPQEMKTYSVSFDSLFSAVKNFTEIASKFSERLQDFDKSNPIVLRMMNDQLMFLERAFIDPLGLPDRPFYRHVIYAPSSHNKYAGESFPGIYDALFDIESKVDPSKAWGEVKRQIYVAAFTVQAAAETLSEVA

In the case of `CC(=O)NCCCC[C@@H]1NC(=O)[C@H](CCCCN)NC(=O)[C@@H](NC(=O)[C@H](Cc2ccc(Cl)cc2)NC(=O)C(C)(C)NC(=O)[C@@H](NC(=O)CC2CCN(C(=O)CN3CCN(CC(=O)O)CCN(CC(=O)O)CCN(CC(=O)O)CC3)CC2)[C@@H](C)O)CSSC[C@@H](C(=O)N[C@H](C(=O)N[C@H](C(N)=O)[C@@H](C)O)C(C)(C)C)NC(=O)[C@H](CC(N)=O)NC(=O)C(C)(C)NC1=O` [PSM-0341, DOTA-Cmp-Thr-Aib-Pcf-[Cys-Lys-Lys(Ac)-Aib-Asn-Cys]-Tle-Thr-NH2] ({DOTA}-[X1]T[Aib][Phe(4-Cl)]CKK(Ac)[Aib]NC[Tle]T-NH2; disulfide 5-10), the IC50 [1, 3] is reported as 200 to 1260 nM and the Kd [2, 4] is reported as < 12.6 nM.

`CCCC[C@H](NC(=O)[C@@H]1CSSC[C@H](NC(=O)[C@H](Cc2ccccc2)NC(=O)[C@H](C)NC(=O)[C@H](CO)NC(C)=O)C(=O)N[C@@H](CCCCN)C(=O)N[C@@H](CCCNC(=N)N)C(=O)N[C@@H](C)C(=O)N[C@@H](CC(N)=O)C(=O)N1)C(=O)N[C@H](C(=O)N[C@@H](CC(=O)O)C(N)=O)[C@@H](C)O` [PSM-0469, Ac-Ser-Ala-Phe-[Cys-Lys-Arg-Ala-Asn-Cys]-Nle-Thr-Asp-NH2] (Ac-SAFCKRANC[Nle]TD-NH2; disulfide 4-9) was tested, and the IC50 [1, 5] was < 200 nM and the Kd [2, 6] was 12.6 to 126 nM.

`C[C@@H](O)[C@H](NC(=O)[C@@H](NC(=O)[C@@H]1CSSC[C@H](NC(=O)[C@H](Cc2ccc(Cl)cc2)NC(=O)C(C)(C)NC(=O)[C@@H](NC(=O)CC2CCN(C(=O)CN3CCN(CC(=O)O)CCN(CC(=O)O)CCN(CC(=O)O)CC3)CC2)[C@@H](C)O)C(=O)N[C@@H](CCCN)C(=O)N[C@@H](CCCNC(=N)N)C(=O)NC(C)(C)C(=O)N[C@@H](CC(N)=O)C(=O)N1)C(C)(C)C)C(N)=O` [PSM-0511, DOTA-Cmp-Thr-Aib-Pcf-[Cys-Om-Arg-Aib-Asn-Cys]-Tle-Thr-NH2] ({DOTA}-[X1]T[Aib][Phe(4-Cl)]C[Orn]R[Aib]NC[Tle]T-NH2; disulfide 5-10) was tested, and the IC50 [1, 5] was < 200 nM and the Kd [2, 6] was < 12.6 nM.

`CCCC[C@@H]1NC(=O)[C@@H](NC(=O)[C@H](Cc2ccc(Cl)cc2)NC(=O)C(C)(C)NC(=O)[C@@H](NC(C)=O)[C@@H](C)O)CSSC[C@@H](C(=O)N[C@H](C(=O)N[C@H](C(N)=O)[C@@H](C)O)C(C)(C)C)NC(=O)[C@H](CC(N)=O)NC(=O)C(C)(C)NC(=O)[C@H](CCCNC(=N)NC(C)=O)NC1=O` [PSM-0570, Ac-Thr-Aib-Pcf-[Cys-Nle-Arg(Ac)-Aib-Asn-Cys]-Tle-Thr-NH2] (Ac-T[Aib][Phe(4-Cl)]C[Nle]R(Ac)[Aib]NC[Tle]T-NH2; disulfide 4-9) was tested, and the IC50 [1, 7] was < 200 nM and the Kd ([2]; PSMA SPR assay, category) was 12.6 to 126 nM.

Compound `CNCCCC[C@@H]1NC(=O)[C@@H](NC(=O)[C@H](Cc2ccccn2)NC(=O)C(C)(C)NC(=O)[C@@H](NC(=O)CC2CCN(C(=O)CN3CCN(CC(=O)O)CCN(CC(=O)O)CCN(CC(=O)O)CC3)CC2)[C@@H](C)O)CSSC[C@@H](C(=O)N[C@H](C(N)=O)C(C)(C)C)NC(=O)[C@H](CC(N)=O)NC(=O)C(C)(C)NC(=O)[C@H](CCCNC(=N)NC)NC1=O` [PSM-0409, DOTA-Cmp-Thr-Aib-Opa-[Cys-Lys(Me)-Arg(Me)-Aib-Asn-Cys]-Tle-NH2] ({DOTA}-[X1]T[Aib][2Pal]C[Lys(Me)][Arg(Me)][Aib]NC[Tle]-NH2; disulfide 5-10) has an IC50 [1, 5] of 200 to 1260 nM and a Kd [2, 6] of 126 to 501 nM.

“InLSC-Cmp-Thr-Aib-Pcf-[Cys-Lys(Me)-Arg(Me)-Aib-Asn-Cys]-Tle-Thr-NH2 [PSM-0604]” was tested, and the “pIC50 [C4-2] CAT” value [1, 7] was “A (pIC50 values >6.7)” and the “pKD CAT” value ([2]; PSMA SPR assay, category) was “A (pKD values >7.9)”.

With `CC(=O)NCCCC[C@@H]1NC(=O)[C@@H](NC(=O)[C@H](Cc2ccc(Cl)cc2)NC(=O)C(C)(C)NC(=O)[C@@H](NC(=O)CC2CCN(C(=O)CN3CCN(CC(=O)O)CCN(CC(=O)O)CCN(CC(=O)O)CC3)CC2)[C@@H](C)O)CSSC[C@@H](C(=O)N[C@H](C(=O)N[C@H](C(N)=O)[C@@H](C)O)C(C)(C)C)NC(=O)[C@H](CC(N)=O)NC(=O)C(C)(C)NC(=O)[C@H](CCCNC(=N)N)NC1=O` [PSM-0466, DOTA-Cmp-Thr-Aib-Pcf-[Cys-Lys(Ac)-Arg-Aib-Asn-Cys]-Tle-Thr-NH2] ({DOTA}-[X1]T[Aib][Phe(4-Cl)]CK(Ac)R[Aib]NC[Tle]T-NH2; disulfide 5-10) the IC50 [1, 5] was 200 to 1260 nM and the Kd [2, 6] was < 12.6 nM.

In the case of `CC(=O)N[C@H](C(=O)NC(C)(C)C(=O)N[C@@H](Cc1ccccc1)C(=O)N[C@H]1CSSC[C@@H](C(=O)N[C@H](C(=O)N[C@H](C(=O)N2CCC(CC(=O)N[C@H](CCCCNC(=O)CN3CCN(CC(=O)O)CCN(CC(=O)O)CCN(CC(=O)O)CC3)C(N)=O)CC2)[C@@H](C)O)C(C)(C)C)NC(=O)[C@H](CC(N)=O)NC(=O)C(C)(C)NC(=O)[C@H](CCCNC(N)=O)NC(=O)[C@H](CCCCN)NC1=O)[C@@H](C)O` [PSM-0252, Ac-Thr-Aib-Phe-[Cys-Lys-Cit-Aib-Asn-Cys]-Tle-Thr-Cmp-lys(DOTA)-NH2] (Ac-T[Aib]FCK[Cit][Aib]NC[Tle]T[X1][dK](DOTA)-NH2; disulfide 4-9), the IC50 [1, 8] is reported as 200 to 1260 nM and the Kd [2, 9] is reported as > 501 nM.

With `CC(=O)N[C@H](C(=O)NC(C)(C)C(=O)N[C@@H](Cc1ccccc1)C(=O)N[C@H]1CSSC[C@@H](C(=O)N[C@H](C(=O)O)C(C)(C)C)NC(=O)[C@H](CC(N)=O)NC(=O)C(C)(C)NC(=O)[C@H](CCCNC(=N)N)NC(=O)[C@H](CCCCN)NC1=O)[C@@H](C)O` [PSM-0300, Ac-Thr-Aib-Phe-[Cys-Lys-Arg-Aib-Asn-Cys]-Tle-OH] (Ac-T[Aib]FCKR[Aib]NC[Tle]-OH; disulfide 4-9) the IC50 [1, 3] was < 200 nM and the Kd [2, 4] was < 12.6 nM.

With `C[C@@H]1NC(=O)[C@H](CCCNC(=N)N)NC(=O)[C@H](CCCCN)NC(=O)[C@@H](NC(=O)[C@H](Cc2ccccc2)NC(=O)[C@H](C)NC(=O)[C@@H](NC(=O)CCC(=O)NCCCOCCOCCOCCCNC(=O)CN2CCN(CC(=O)O)CCN(CC(=O)O)CCN(CC(=O)O)CC2)[C@@H](C)O)CSSC[C@@H](C(N)=O)NC(=O)[C@H](CC(N)=O)NC1=O` [PSM-0201, DOTA-Ttds-Thr-Ala-Phe-[Cys-Lys-Arg-Ala-Asn-Cys]-NH2] ({X3-Suc}-TAFCKRANC-NH2; disulfide 4-9) the IC50 [1, 8] was > 3160 nM and the Kd [2, 9] was > 501 nM.

`CC(=O)N[C@H](C(=O)NC(C)(C)C(=O)N[C@@H](Cc1ccccc1)C(=O)N[C@H]1CSSC[C@@H](C(=O)N[C@H](C(=O)N[C@H](C(=O)N[C@H](CCCCNC(=O)CN2CCN(CC(=O)O)CCN(CC(=O)O)CCN(CC(=O)O)CC2)C(N)=O)[C@@H](C)O)C(C)(C)C)NC(=O)[C@H](CC(N)=O)NC(=O)C(C)(C)NC(=O)[C@H](CCCNC(=N)N)NC(=O)[C@H](CCCCN)NC1=O)[C@@H](C)O` [PSM-0288, Ac-Thr-Aib-Phe-[Cys-Lys-Arg-Aib-Asn-Cys]-Tle-Thr-lys(DOTA)-NH2] (Ac-T[Aib]FCKR[Aib]NC[Tle]T[dK](DOTA)-NH2; disulfide 4-9) was tested, and the IC50 [1, 3] was < 200 nM and the Kd [2, 4] was < 12.6 nM.

With `CC(=O)N[C@H](C(=O)NC(C)(C)C(=O)N[C@@H](Cc1ccccc1)C(=O)N[C@H]1CSSC[C@@H](C(=O)N[C@H](C(=O)NCCC(N)=O)C(C)(C)C)NC(=O)[C@H](CC(N)=O)NC(=O)C(C)(C)NC(=O)[C@H](CCCNC(=N)N)NC(=O)[C@H](CCCCN)NC1=O)[C@@H](C)O` [PSM-0426, Ac-Thr-Aib-Phe-[Cys-Lys-Arg-Aib-Asn-Cys]-Tle-Bal-NH2] (Ac-T[Aib]FCKR[Aib]NC[Tle][βAla]-NH2; disulfide 4-9) the IC50 [1, 5] was < 200 nM and the Kd [2, 6] was < 12.6 nM.
